Patent US9309222B2, “Phenyl linked quinolinyl modulators of RORγt” (Janssen Pharmaceutica NV, priority 2012, dated 2016)
“And” between values parts separate entries of the source, which are not always exact repeats. Identical values can stand only once. Counter-ions that a name gives are not always drawn.

Tests used:
[1] = test system: IL-17 production by CD4 T cells; test: Human Th17 assay (IL-17 production by CD4 T cells under Th17 differentiation conditions); format: cell-based; details: IL-17 in supernatant after 3 days
Procedure, shortened: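 Primary CD4+ T cells from healthy-donor PBMC, preincubated 1 h with titrated compound (0.2% DMSO), then activated with anti-CD3/CD28 beads plus anti-IL4, anti-IFNγ, IL1β, IL23, IL6, TGFβ and IL2.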

[2] = target: T1, human RORγt ligand binding domain (RORγt LBD) (Homo sapiens, UniProt P51449); test: RORγt ThermoFluor assay (thermal shift, ligand binding affinity); details: estimated from concentration response of thermal shift
T1 construct: His-tag (N); TurboTEV protease cleavage site (ENLYFQG) (N); made in house; host or cells: E. coli (pHIS1, modified pET vector)
T1 sequence (P51449 with tags, fused parts or gaps): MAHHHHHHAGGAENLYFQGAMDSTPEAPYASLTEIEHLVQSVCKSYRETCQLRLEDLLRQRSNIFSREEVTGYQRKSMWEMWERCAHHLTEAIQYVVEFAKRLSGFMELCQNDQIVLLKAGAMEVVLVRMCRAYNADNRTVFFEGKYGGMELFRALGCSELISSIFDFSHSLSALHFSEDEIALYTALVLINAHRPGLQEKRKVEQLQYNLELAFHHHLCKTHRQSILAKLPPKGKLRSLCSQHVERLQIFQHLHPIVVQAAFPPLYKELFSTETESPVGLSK
Procedure, shortened: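 Thermal shift of 0.065 mg/mL RORγt with 60 μM 1,8-ANS in 100 mM Hepes pH 7.0, 10 mM NaCl, 2.5 mM GSH, 0.002% Tween-20. Compounds in 1:2 series from 10 mM DMSO stock. Dye fluorescence (500 nm emission) tracked versus temperature; ΔTm used to derive KD.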

human RORγt LBD = target: T2, human RORγt LBD (Homo sapiens, UniProt P51449); test: RORγt reporter assay (GAL4-RORγt LBD luciferase in HEK293T cells); format: cell-based; details: for IC50: HEK293T cells, 24 hours compound treatment; for inhibition at 6 µM: HEK-293T, read-out: RORγt reporter Assay, % inhibition @ 6 μM, HEK293T cells, 6 μM compound
T2 construct: expressed in transfected cells
T2 sequence (P51449 258-518): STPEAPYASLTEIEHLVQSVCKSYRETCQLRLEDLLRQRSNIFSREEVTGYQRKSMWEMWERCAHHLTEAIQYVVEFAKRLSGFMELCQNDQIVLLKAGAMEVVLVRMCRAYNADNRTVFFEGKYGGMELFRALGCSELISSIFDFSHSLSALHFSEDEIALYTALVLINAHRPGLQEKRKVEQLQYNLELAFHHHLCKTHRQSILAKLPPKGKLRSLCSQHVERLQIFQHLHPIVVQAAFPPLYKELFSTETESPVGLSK
Procedure, shortened: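 HEK293T cells transiently co-transfected with pBIND (GAL4 DBD fused to wild-type human RORγt LBD, plus SV40-driven renilla luciferase) and pGL4.31 GAL4-responsive firefly luciferase reporter. Plated in phenol-red-free DMEM with 5% lipid-reduced FCS and treated with compound for 24 h. Firefly/renilla luminescence ratio plotted against compound concentration.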

Structure (SMILES)	IC50 ([1]; Homo sapiens, CD4+ T, 72 h) [nM]	Kd [2] [nM]	IC50 (human RORγt LBD)	inhibition at 6 µM (human RORγt LBD) [%]	IC50 [1] [nM]
OC(c1ccccc1)(c1cccnc1)c1ccc2nc(Cl)c(-c3ccccc3Cl)c(Cl)c2c1 (stereo not shown) [Example 6, (2,4-Dichloro-3-(2-chlorophenyl)quinolin-6-yl)(phenyl)(pyridin-3-yl)methanol]	~6000	74	240 nM	90	–
COc1ccc(C(O)(c2ccc3nc(Cl)c(-c4ccccc4)c(Cl)c3c2)c2cncn2C)cn1 (stereo not shown) [Example 10, (2,4-Dichloro-3-phenylquinolin-6-yl)(6-methoxypyridin-3-yl)(1-methyl-1H-imidazol-5-yl)methanol•TFA]	590	29	150 nM	98	–
Cn1cncc1C(O)(c1ccc(F)nc1)c1ccc2nc(Cl)c(-c3ccccc3)c(Cl)c2c1 (stereo not shown) [Example 12, (2,4-Dichloro-3-phenylquinolin-6-yl)(6-fluoropyridin-3-yl)(1-methyl-1H-imidazol-5-yl)methanol•TFA]	330	22	~100 nM	103	–
Cn1cncc1C(O)(c1ccc(Cl)nc1)c1ccc2nc(Cl)c(-c3ccccc3)c(Cl)c2c1 (stereo not shown) [Example 13]	530	15	85 nM	106	–
OC(c1ccc(Cl)cc1)(c1cccnc1)c1ccc2nc(Cl)c(-c3ccccc3)c(Cl)c2c1 (stereo not shown) [Example 17, (4-Chlorophenyl)(2,4-dichloro-3-phenylquinolin-6-yl)(pyridin-3-yl)methanol]	940	210	270 nM	102	–
Cn1cncc1C(O)(c1ccncc1)c1ccc2nc(N3CCOCC3)c(-c3ccccc3)c(Cl)c2c1 (stereo not shown) [Example 20, (4-Chloro-2-morpholin-4-yl-3-phenylquinolin-6-yl)(1-methyl-1H-imidazol-5-yl)pyridin-4-ylmethanol•TFA]	520	130	330 nM	104	–
OC(c1ccncc1)(c1ccncc1)c1ccc2nc(Cl)c(-c3ccccc3)c(Cl)c2c1 [Example 21, (2,4-Dichloro-3-phenylquinolin-6-yl)(dipyridin-4-yl)methanol•TFA]	~900	120	860 nM	91	–
OC(c1ccc(F)cc1)(c1cccnc1)c1ccc2nc(Cl)c(-c3ccccc3)c(Cl)c2c1 (stereo not shown) [Example 22, (2,4-Dichloro-3-phenylquinolin-6-yl)(4-fluorophenyl)pyridin-3-ylmethanol]	440	75	220 nM	104	–
OC(c1cccnc1)(c1cccnc1)c1ccc2nc(Cl)c(-c3ccccc3)c(Cl)c2c1 [Example 24, (2,4-Dichloro-3-phenylquinolin-6-yl)(dipyridin-3-yl)methanol•TFA]	320	24	79 nM	104	~200
OC(c1cccnc1)(c1cccc(Cl)c1)c1ccc2nc(Cl)c(-c3ccccc3)c(Cl)c2c1 (stereo not shown) [Example 25, (3-Chlorophenyl)(2,4-dichloro-3-phenylquinolin-6-yl)(pyridin-3-yl)methanol]	340	65	94 nM and ~90 nM	99	–
OC(c1cccnc1)(c1ccc2nc(Cl)c(-c3ccccc3)c(Cl)c2c1)c1ccccn1 (stereo not shown) [Example 26, (2,4-Dichloro-3-phenylquinolin-6-yl)(pyridin-2-yl)pyridin-3-ylmethanol•TFA]	2800	1300	700 nM	100	–
Oc1ccc(C(O)(c2cccnc2)c2ccc3nc(Cl)c(-c4ccccc4)c(Cl)c3c2)cc1 (stereo not shown) [Example 29, 4-[(2,4-Dichloro-3-phenylquinolin-6-yl)(hydroxy)pyridin-3-ylmethyl]phenol•HCl]	2800	180	260 nM	95	–
CCc1nc2ccc(C(O)(c3ccc(F)cc3)c3cccnc3)cc2c(Cl)c1-c1ccccc1 (stereo not shown) [Example 30, (4-Chloro-2-ethyl-3-phenylquinolin-6-yl)(4-fluorophenyl)pyridin-3-ylmethanol•TFA]	~1000	33	~300 nM	93	–
CN(C)c1nc2ccc(C(O)(c3ccc(Cl)cc3)c3cccnc3)cc2c(Cl)c1-c1ccccc1 (stereo not shown) [Example 32, [4-Chloro-2-(dimethylamino)-3-phenylquinolin-6-yl](4-chlorophenyl)pyridin-3-ylmethanol•TFA]	860	330	94 nM	97	–
CN(C)c1nc2ccc(C(O)(c3cccnc3)c3cncn3C)cc2c(Cl)c1-c1ccccc1 (stereo not shown) [Example 34, [4-Chloro-2-(dimethylamino)-3-phenylquinolin-6-yl](1-methyl-1H-imidazol-5-yl)pyridin-3-ylmethanol•TFA]	140	33	47 nM and < 50 nM	100	–
CN(C)c1c(-c2ccccc2)c(Cl)nc2ccc(C(O)(c3cccnc3)c3cncn3C)cc12 (stereo not shown) [Example 35, [2-Chloro-4-(dimethylamino)-3-phenylquinolin-6-yl](1-methyl-1H-imidazol-5-yl)pyridin-3-ylmethanol•TFA]	770	330	340 nM	97	–
CN(C)c1nc2ccc(C(O)(c3ccccn3)c3cncn3C)cc2c(Cl)c1-c1ccccc1 (stereo not shown) [Example 36, [4-Chloro-2-(dimethylamino)-3-phenylquinolin-6-yl](1-methyl-1H-imidazol-5-yl)pyridin-2-ylmethanol•TFA]	1600	2000	290 nM	98	–
CN(C)c1nc2ccc(C(O)(c3ccncc3)c3ccncc3)cc2c(Cl)c1-c1ccccc1 [Example 37, [4-Chloro-2-(dimethylamino)-3-phenylquinolin-6-yl](dipyridin-4-yl)methanol•TFA]	~1000	200	190 nM	91	–
CN(C)c1nc2ccc(C(O)(c3ccc(F)cc3)c3cccnc3)cc2c(Cl)c1-c1ccccc1 (stereo not shown) [Example 38, [4-Chloro-2-(dimethylamino)-3-phenylquinolin-6-yl](4-fluorophenyl)pyridin-3-ylmethanol•TFA]	270	37	110 nM and < 50 nM	98	–
CN(C)c1nc2ccc(C(O)(c3cccnc3)c3cccnc3)cc2c(Cl)c1-c1ccccc1 [Example 40, [4-Chloro-2-(dimethylamino)-3-phenylquinolin-6-yl](dipyridin-3-yl)methanol•TFA]	56	18	47 nM and < 50 nM	100	–
CN(C)c1nc2ccc(C(O)(c3cccnc3)c3cccc(Cl)c3)cc2c(Cl)c1-c1ccccc1 (stereo not shown) [Example 41, [4-Chloro-2-(dimethylamino)-3-phenylquinolin-6-yl](3-chlorophenyl)pyridin-3-ylmethanol•TFA]	200	23	110 nM and ~100 nM	98	–
CN(C)c1nc2ccc(C(O)(c3cccnc3)c3ccccc3Cl)cc2c(Cl)c1-c1ccccc1 (stereo not shown) [Example 44, [4-Chloro-2-(dimethylamino)-3-phenylquinolin-6-yl](2-chlorophenyl)pyridin-3-ylmethanol•TFA]	550	330	170 nM	97	–
CCN(C)c1nc2ccc(C(O)(c3ccncc3)c3cncn3C)cc2c(Cl)c1-c1ccccc1 (stereo not shown) [Example 50, {4-Chloro-2-[ethyl(methyl)amino]-3-phenylquinolin-6-yl}(1-methyl-1H-imidazol-5-yl)pyridin-4-ylmethanol•TFA]	36	5	7 nM and ~9 nM and < 50 nM	105	–
COc1cccc(C(O)(c2cccnc2)c2ccc3nc(Cl)c(-c4ccccc4)c(Cl)c3c2)c1 (stereo not shown) [Example 54, (2,4-Dichloro-3-phenylquinolin-6-yl)(3-methoxyphenyl)pyridin-3-ylmethanol]	360	39	150 nM	97	–
